The experiment relates to 22Rv1 Cell. Briefly: 22RV1 cell growth inhibition, CellTiter-Glo, 72 h. The format is cell-based. Conditions: Homo sapiens, 22Rv1, 72 h, 22RV1 cells, 72 h culture. As for the experimental part:
22RV1 or vCap cells were cultured in RPMI-1640 medium (10% fetal bovine serum and 100 units (per mL) of penicillin/streptomycin dual antibody were added to RPMI-1640) in a 37° C., 5% CO2 cell incubator. Cells at the logarithmic growth phase were inoculated onto a 96-well cell culture plate at 5×10^3 cells/100 μL/well and cultured overnight. Solutions of different concentrations of an active compound in DMSO were added, with the final concentration being 0.5% DMSO. The positive control was 1% TweeN2O, and the negative control was 0.5% DMSO. After 72 h of culture, an equal volume of CellTiter-Glo was added to each well, and the mixtures were mixed homogeneously by shaking for 2 min. The plate was let stand at room temperature for 10 min, and fluorescence signal values were read using a microplate reader. Data were analyzed using Prism 7.0 and graphs were generated. The values are shown as mean f SEM (N=2). […] The X-axis represents compound concentration (μM), and the Y-axis represents % inhibition.

This passage reports IC50 results from patent US20240109868A1, “EP300/CBP MODULATOR, PREPARATION METHOD THEREFOR AND USE THEREOF” (Miracure Biotechnology Limited, priority 2022, published 2024).

As a reminder, the IC50 is the concentration needed to halve the response being measured. Read a low IC50 as greater potency.

`CNC(=O)N1CCc2cc(C3CCC(=O)N(CC(C)O)C3)cc(N3CCCc4cc(-c5cnn(C)c5)c(C(F)F)cc43)c2C1` (stereo not drawn) [Compound M001223] registered an IC50 above 1000 nM.
With `CC(=O)N1Cc2cc(C3CCC(=O)N(CC(C)O)C3)cc(N3CCCc4cc(-c5cnn(C)c5)c(C(F)F)cc43)c2C1` (stereo not drawn) [Compound M001226], the 50% inhibitory concentration (IC50) was above 1000 nM.
For `CC(=O)N1Cc2cc(C3CCC(=O)N(C)C3)cc(N3CCCc4cc(-c5cn(C)nc5C(=O)N(C)C)c(C(F)F)cc43)c2C1` (stereo not drawn) [Compound M001227] the value was above 1000 nM.
For `CNC(=O)N1CCc2cc(C3CCC(=O)N(C)C3)cc(Nc3cc(C(F)F)c(-c4cnn(C)c4)cc3F)c2C1` (stereo not drawn) [Compound M001232, 8-((5-(difluoromethyl)-2-fluoro-4-(1-methyl-1H-pyrazol-4-yl)phenyl)amino)-N-methyl-6-(1-methyl-6-oxopiperidin-3-yl)-3,4-dihydroisoquinoline-2(1H)-carboxamide], the IC50 is above 1000 nM.
Then `CC(=O)N1Cc2cc(C3CCC(=O)N(C)C3)cc(Nc3cc(C(F)F)c(-c4cnn(C)c4)cc3F)c2C1` (stereo not drawn) [Compound M001233], with above 1000 nM.
`CC(=O)N1Cc2cc(C3COC(=O)N(C)C3)cc(N3CCCc4cc(-c5cnn(C)c5)c(C(F)F)cc43)c2C1` (stereo not drawn) [Compound M001238] returned an IC50 above 1000 nM.
Then `CNC(=O)N1CCc2cc(C3CCN(CC(C)O)C(=O)C3)cc(Nc3cc(C(F)F)c(-c4cnn(C)c4)cc3F)c2C1` (stereo not drawn) [Compound M001240], with above 1000 nM; and `CC(=O)N1Cc2cc(C3CCN(CC(C)O)C(=O)C3)cc(Nc3cc(C(F)F)c(-c4cnn(C)c4)cc3F)c2C1` (stereo not drawn) [Compound M001241], with above 1000 nM; and `CC(=O)N1Cc2cc(C3CCN(CCO)C(=O)C3)cc(N3CCCc4cc(-c5cnn(C)c5)c(C(F)F)cc43)c2C1` (stereo not drawn) [Compound M001247], with above 1000 nM.
For `CNC(=O)N1CCc2cc(C3CCN(CCO)C(=O)C3)cc(N3CCCc4cc(-c5cnn(C)c5)c(C(F)F)cc43)c2C1` (stereo not drawn) [Compound M001248] the value was above 1000 nM; for `CC(=O)N1Cc2cc(C3CCN(CCF)C(=O)C3)cc(N3CCCc4cc(-c5cnn(C)c5)c(C(F)F)cc43)c2C1` (stereo not drawn) [Compound M001250], above 1000 nM.
Take `CNC(=O)N1CCc2cc(C3CCN(CCF)C(=O)C3)cc(N3CCCc4cc(-c5cnn(C)c5)c(C(F)F)cc43)c2C1` (stereo not drawn) [Compound M001251]: the IC50 was above 1000 nM.
Then `CC(=O)N1Cc2cc(C3CCN(CC(F)F)C(=O)C3)cc(N3CCCc4cc(-c5cnn(C)c5)c(C(F)F)cc43)c2C1` (stereo not drawn) [Compound M001254], with below 1000 nM.
Turning to `CNC(=O)N1CCc2cc(C3CCN(CC(F)F)C(=O)C3)cc(N3CCCc4cc(-c5cnn(C)c5)c(C(F)F)cc43)c2C1` (stereo not drawn) [Compound M001255], the IC50 is below 1000 nM.
As for `CNC(=O)N1CCc2cc(C3CCC(=O)N(CCF)C3)cc(N3CCCc4cc(-c5cnn(C)c5)c(C(F)F)cc43)c2C1` (stereo not drawn) [Compound M001256], the IC50 was above 1000 nM.
In turn, `CC(=O)N1Cc2cc(C3CCC(=O)N(CCF)C3)cc(N3CCCc4cc(-c5cnn(C)c5)c(C(F)F)cc43)c2C1` (stereo not drawn) [Compound M001257] returned an IC50 above 1000 nM.
`CC(=O)N1Cc2cc(C3CCCNC3=O)cc(N3CCCc4cc(-c5cnn(C)c5)c(C(F)F)cc43)c2C1` (stereo not drawn) [Compound M001258] returned an IC50 above 1000 nM.
In the case of `CCN1CCN(c2cc3c(c(N4CCCc5cc(-c6cnn(C)c6)c(C(F)F)cc54)c2)CN(C(C)=O)C3)CC1=O` [Compound M001262], the IC50 is above 1000 nM.
Regarding `COC(=O)N1CCc2cc(C3CCOCC3)cc(N3CCCc4cc(-c5cnn(C)c5)c(C(F)F)cc43)c2C1` [Compound M001270], the IC50 was above 1000 nM.
Then `COC(=O)N1CCc2cc(C3CCC(OC)CC3)cc(N3CCCc4cc(-c5cnn(C)c5)c(C(F)F)cc43)c2C1` (stereo not drawn) [Compound M001271], with above 1000 nM; and `CNC(=O)N1CCc2cc(C3CCN(O)CC3)cc(N3CCCc4cc(-c5cnn(C)c5)c(C(F)F)cc43)c2C1` [Compound M001276, 8-[7-(difluoromethyl)-6-(1-methylpyrazol-4-yl)-3,4-dihydro-2H-quinolin-1-yl]-6-(1-hydroxypiperidin-4-yl)-N-methyl-3,4-dihydro-1H-isoquinoline-2-carboxamide], with above 1000 nM; and `CC(=O)N1Cc2cc(C3CCN(O)CC3)cc(N3CCCc4cc(-c5cnn(C)c5)c(C(F)F)cc43)c2C1` [Compound M001277], with above 1000 nM.
As for `CNC(=O)N1CCc2cc(C3CCN(C4CCC(=O)NC4=O)C(=O)C3)cc(N3CCCc4cc(-c5cnn(C)c5)c(C(F)F)cc43)c2C1` (stereo not drawn) [Compound M001287], the IC50 was above 1000 nM.
In the case of `CNC(=O)N1CCc2cc(-c3ccn(C4CCC(=O)NC4=O)c(=O)c3)cc(N3CCCc4cc(-c5cnn(C)c5)c(C(F)F)cc43)c2C1` (stereo not drawn) [Compound M001300, 8-(7-(difluoromethyl)-6-(1-methyl-1H-pyrazol-4-yl)-3,4-dihydroquinolin-1(2H)-yl)-6-(1-(2,6-dioxopiperidin-3-yl)-2-oxo-1,2-dihydropyridin-4-yl)-N-methyl-3,4-dihydroisoquinoline-2(1H)-carboxamide], the IC50 is above 1000 nM.
Then `CNC1CCC(c2cc3c(c(N4CCCc5cc(-c6cnn(C)c6)c(C(F)F)cc54)c2)CN(C(C)=O)C3)CC1` (stereo not drawn) [Compound M001302], with above 1000 nM; and `CC(=O)N1Cc2cc([C@H]3CC[C@@H](N(C)C)CC3)cc(N3CCCc4cc(-c5cnn(C)c5)c(C(F)F)cc43)c2C1` [Compound M001303], with above 1000 nM; and `CC(=O)N1Cc2cc([C@H]3CC[C@@H](NS(C)(=O)=O)CC3)cc(N3CCCc4cc(-c5cnn(C)c5)c(C(F)F)cc43)c2C1` [Compound M001305], with below 1000 nM.
The compound `CNC(=O)N1CCc2cc(C3CCN(S(C)(=O)=O)CC3)cc(N3CCCc4cc(-c5cnn(C)c5)c(C(F)F)cc43)c2C1` [Compound M001306] registered an IC50 above 1000 nM.
Then `CC(=O)N[C@H]1CC[C@@H](c2cc3c(c(N4CCCc5cc(-c6cnn(C)c6)c(C(F)F)cc54)c2)CN(C(C)=O)C3)CC1` [Compound M001308], with below 1000 nM; and `CC(=O)N1Cc2cc([C@H]3CC[C@H](NS(C)(=O)=O)CC3)cc(N3CCCc4cc(-c5cnn(C)c5)c(C(F)F)cc43)c2C1` [Compound M001309], with below 1000 nM.
On to `CN[C@H]1CC[C@H](c2cc3c(c(N4CCCc5cc(-c6cnn(C)c6)c(C(F)F)cc54)c2)CN(C(C)=O)C3)CC1` [Compound M001311], for which the IC50 is above 1000 nM.
For `CC(=O)N1Cc2cc([C@H]3CC[C@H](N(C)C)CC3)cc(N3CCCc4cc(-c5cnn(C)c5)c(C(F)F)cc43)c2C1` [Compound M001312] the value was above 1000 nM; for `CNC(=O)N1CCc2cc(C3CCC(NS(C)(=O)=O)CC3)cc(N3CCCc4cc(-c5cnn(C)c5)c(C(F)F)cc43)c2C1` (stereo not drawn) [Compound M001314], above 1000 nM.
Consider `CNC(=O)N1CCc2cc([C@H]3CC[C@@H](NC(C)=O)CC3)cc(N3CCCc4cc(-c5cnn(C)c5)c(C(F)F)cc43)c2C1` [Compound M001316], for which the IC50 is above 1000 nM.
For `CNC(=O)N1CCc2cc([C@H]3CC[C@H](NC(C)=O)CC3)cc(N3CCCc4cc(-c5cnn(C)c5)c(C(F)F)cc43)c2C1` [Compound M001317] the value was above 1000 nM.
With `CNC(=O)N1CCc2cc([C@H]3CC[C@@H](N)CC3)cc(N3CCCc4cc(-c5cnn(C)c5)c(C(F)F)cc43)c2C1` [Compound M001318], the IC50 is above 1000 nM.
